Assay results reported in paper PMC10132233 (Journal of Enzyme Inhibition and Medicinal Chemistry, 2023).

Columns and labels:
22RV1 cells = experiment: Cell cycle analysis (PI, ADAMII LS), 22RV1; format: cell-based, human; conditions: 22RV1, compound at its IC50, 24 h
Method: Cell cycle progression is responsible for normal cell growth and proliferation. DNA damage can result in apoptosis, which causes cell death, or DNA repair. At specific checkpoints that serve as control mechanisms to guarantee correct cell division, the state of the cells is evaluated. Checkpoints in the cell cycle include the G1 (restriction), S […], and G2/M[29]. Anticancer medications’ function is to halt cell division at these checkpoints. Treatment with potent cytotoxic (as an anticancer) agents can determine at which phase apoptosis occurs in the cell cycle. […] PC3 and 22RV1 cells were treated with compound 9f at its IC50. The comparison data in Table 6 and Figure 3 indicate that compound 9f (test 2) arrested the cell cycle of 22RV1 and PC3 cells at the G2/M phase by 62.74% and 49.43%, respectively (Figure 3). Also, the cell population in G1 and S phases decreases after treatment (test 2) compared to a negative control (test 1).
To determine the effect of the tested compound on the cell cycle distribution of PC3 and 22RV1 cell lines. Cell cycles can be analysed with checking the cell cycle change compared to the control group. Control cells without any treatment were used as a reference point for determining the cell cycle arrest phase for the test sample. Cell cycle analysis was performed using the Cell Cycle Analysis Kit (ADAMII LS, NanoEntek, Seoul, South Korea). Briefly, cancer cells were first seeded in six-well plates (0.8 × 10^6 cells per well) and then incubated for 24 h at 37 °C in a 5% CO2-containing atmosphere. […] 25 µL of sample mixture was loaded into ADAMII LS assay slide, then the slide was incubated at room temperature for 1 min in the dark and run on the ADAMII LS fluorescence cell analyser. Cell cycle distribution was calculated using ADAMII LS software (ADAMII LS, NanoEntek, Seoul, South Korea).

[1] = biological target: T1, c-mesenchymal-epithelial transition factor (c-MET) (Homo sapiens, UniProt P08581); experiment: Small kinase panel, c-MET; format: biochemical; conditions: read-out: % kinase inhibition (relative to DMSO control) c-MET
T1 construct: purchased Reaction Biology Co. (Malvern, PA)
T1 sequence (P08581 25-1390): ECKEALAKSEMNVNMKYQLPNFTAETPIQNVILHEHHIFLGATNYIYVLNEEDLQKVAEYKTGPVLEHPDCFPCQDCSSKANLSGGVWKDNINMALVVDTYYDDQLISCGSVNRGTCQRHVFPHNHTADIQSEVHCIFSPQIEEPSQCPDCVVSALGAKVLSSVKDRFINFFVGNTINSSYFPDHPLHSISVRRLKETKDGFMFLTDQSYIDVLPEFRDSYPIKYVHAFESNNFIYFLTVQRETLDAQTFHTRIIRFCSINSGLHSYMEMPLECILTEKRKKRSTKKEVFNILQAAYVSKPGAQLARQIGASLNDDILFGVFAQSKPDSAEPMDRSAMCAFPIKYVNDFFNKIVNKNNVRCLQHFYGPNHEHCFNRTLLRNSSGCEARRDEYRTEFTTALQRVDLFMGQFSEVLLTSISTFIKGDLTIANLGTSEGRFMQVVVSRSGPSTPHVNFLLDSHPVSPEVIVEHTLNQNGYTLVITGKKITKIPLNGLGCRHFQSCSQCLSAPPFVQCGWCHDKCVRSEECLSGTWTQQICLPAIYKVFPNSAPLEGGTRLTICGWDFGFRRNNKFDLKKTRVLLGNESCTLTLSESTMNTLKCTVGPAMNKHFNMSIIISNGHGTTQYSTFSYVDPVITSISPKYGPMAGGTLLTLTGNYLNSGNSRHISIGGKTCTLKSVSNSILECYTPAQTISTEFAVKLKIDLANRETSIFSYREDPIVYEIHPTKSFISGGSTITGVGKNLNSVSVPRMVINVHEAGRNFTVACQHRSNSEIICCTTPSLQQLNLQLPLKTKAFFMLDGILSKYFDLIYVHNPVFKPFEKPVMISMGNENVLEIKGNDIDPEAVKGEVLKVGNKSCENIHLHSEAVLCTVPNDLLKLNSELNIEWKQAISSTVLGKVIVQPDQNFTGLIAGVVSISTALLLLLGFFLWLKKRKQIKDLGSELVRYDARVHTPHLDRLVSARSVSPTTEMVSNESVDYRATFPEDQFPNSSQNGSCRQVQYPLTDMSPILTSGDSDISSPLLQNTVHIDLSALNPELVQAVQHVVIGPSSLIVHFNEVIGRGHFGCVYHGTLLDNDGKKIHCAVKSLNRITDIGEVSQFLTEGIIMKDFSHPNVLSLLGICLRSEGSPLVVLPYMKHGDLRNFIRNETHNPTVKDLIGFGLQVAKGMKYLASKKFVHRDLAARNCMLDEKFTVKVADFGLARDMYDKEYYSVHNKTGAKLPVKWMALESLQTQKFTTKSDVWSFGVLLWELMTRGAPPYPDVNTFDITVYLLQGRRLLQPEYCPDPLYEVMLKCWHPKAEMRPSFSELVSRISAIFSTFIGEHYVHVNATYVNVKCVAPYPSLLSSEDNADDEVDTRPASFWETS
Method: (§1) Enzyme inhibitory assays were carried out as described in our previous reports in the literature. […] The HotSpot assay platform includes specific kinase/substrate pairs and required cofactors. The base reaction buffer consisted of 20 mM Hepes (pH 7.5), 10 mM MgCl2, 1 mM EGTA, 0.02% Brij35, 0.02 mg/mL BSA, 0.1 mM Na3VO4, 2 mM DTT, and 1% DMSO. The tested compounds were dissolved in 100% DMSO to a specific concentration, and serial dilution was conducted. The reaction mixture containing the tested compound and 33P-ATP was incubated at room temperature for 2 h, and radioactivity was detected using the filter-binding method.

[2] = test system: 22RV1 prostate carcinoma cell line; experiment: MTT cytotoxicity assay, 22RV1; format: cell-based; conditions: Homo sapiens, 24 h
From the text: Accordingly, we aimed to investigate the cytotoxic potential of this new series against prostate carcinoma cell lines. […] The potent nanomolar cell-based activity of this series of compounds over the tested prostate carcinoma cell line could be attributed to other possible targets in addition to EGFR and HER2 receptors. The presence of the 2-nitroimidazole moiety in the chemical structure of compounds 9a–h could develop possible covalent bonds between the nitroimidazole moiety and some cellular proteins.
Prostate cancer cell lines (PC3 and 22RV1) of American Type Culture Collection (ATCC) were obtained from Korean Cell Center (KCL). PC3 and 22RV1 cell lines were cultured in Roswell Park Memorial Institute Medium (RPMI) 1640 and Dulbecco’s modified Eagle’s medium (DMEM) (GenDepot, Barker, TX) supplemented with 1% penicillin–streptomycin and 10% foetal bovine serum (FBS). The cells were maintained at 37 °C in a 5% CO2 with a 95% humid atmosphere.
To further analyse the intracellular cytotoxicity effect of the as-synthesised compounds, MTT assay was performed. Moreover, the experiments were divided into subcategories. In each group, cancer cells were first seeded in 96-well plates (4 × 10^4 cells per well) and then incubated for 24 h at 37 °C in a 5% CO2-containing atmosphere. Subsequently, the medium from the culture plate was removed, and 100 µL of RPMI media containing different concentrations of compounds (0.01, 0.005, 0.0025, 0.00125, and 0.000625 µM) were then added into the cell lines in each well and incubated for 24 h in a 5% CO2 humidified incubator at 37 °C. Afterwards, MTT solution (150 μL, 1 mg/mL) was added to each well, replacing the media-containing compounds. After 4 h of incubation, the MTT reagent was removed, and 200 μL of DMSO was then added to dissolve the formazan crystals, and colour intensity was measured at a wavelength of 540 nm using a BioTek Synergy H1 instrument (BioTek, Winooski, VT). IC50 was calculated according to the equation of Boltzmann sigmoidal concentration–response curve using Graph Pad Prism 5 (La Jolla, CA).

[3] = biological target: T2, cyclin-dependent kinase 2 (CDK2) (Homo sapiens, UniProt P24941); experiment: Small kinase panel, CDK2; format: biochemical; conditions: read-out: % kinase inhibition (relative to DMSO control) CDK2
T2 construct: purchased Reaction Biology Co. (Malvern, PA)
Method: as §1

## COc1cc2ncnc(Nc3ccc(Oc4cccc(C(F)(F)F)c4)c(Cl)c3)c2cc1OCCCCn1ccnc1[N+](=O)[O-] [Compound 9f, N-(3-Chloro-4-(3-(trifluoromethyl)phenoxy)phenyl)-7-methoxy-6-(4-(2-nitro-1H-imidazol-1-yl)butoxy)quinazolin-4-amine]
22RV1 cells
  G0/G1 phase Percent: 6.08%
  G2/M phase Percent: 62.74%
  S phase Percent: 9.13%
[1]
  inhibition at 10 µM: 24.6%
[2]
  IC50: 2.7 nM
[3]
  inhibition at 10 µM: 0.8%
